# Source: article PMC8569553, “An improved assay to measure the phospholipid transfer activity of microsomal triglyceride transport protein” (Journal of Lipid Research, 2021)
# Where a chain is given by its changes, count along the chain named.
# What was measured:
# [1] = target: T1, human microsomal triglyceride transfer protein (hMTP) (Homo sapiens, UniProt P55157); assay: fluorescent NBD-lipid vesicle transfer assay (PL and TAG) with purified MTP; assay type: biochemical
# T1 construct: gene MTTP; hMTP-FLAG, purified from Cos-7 cells; with protein disulphide isomerase (PDI, β subunit)
# T1 sequence (P55157 19-894): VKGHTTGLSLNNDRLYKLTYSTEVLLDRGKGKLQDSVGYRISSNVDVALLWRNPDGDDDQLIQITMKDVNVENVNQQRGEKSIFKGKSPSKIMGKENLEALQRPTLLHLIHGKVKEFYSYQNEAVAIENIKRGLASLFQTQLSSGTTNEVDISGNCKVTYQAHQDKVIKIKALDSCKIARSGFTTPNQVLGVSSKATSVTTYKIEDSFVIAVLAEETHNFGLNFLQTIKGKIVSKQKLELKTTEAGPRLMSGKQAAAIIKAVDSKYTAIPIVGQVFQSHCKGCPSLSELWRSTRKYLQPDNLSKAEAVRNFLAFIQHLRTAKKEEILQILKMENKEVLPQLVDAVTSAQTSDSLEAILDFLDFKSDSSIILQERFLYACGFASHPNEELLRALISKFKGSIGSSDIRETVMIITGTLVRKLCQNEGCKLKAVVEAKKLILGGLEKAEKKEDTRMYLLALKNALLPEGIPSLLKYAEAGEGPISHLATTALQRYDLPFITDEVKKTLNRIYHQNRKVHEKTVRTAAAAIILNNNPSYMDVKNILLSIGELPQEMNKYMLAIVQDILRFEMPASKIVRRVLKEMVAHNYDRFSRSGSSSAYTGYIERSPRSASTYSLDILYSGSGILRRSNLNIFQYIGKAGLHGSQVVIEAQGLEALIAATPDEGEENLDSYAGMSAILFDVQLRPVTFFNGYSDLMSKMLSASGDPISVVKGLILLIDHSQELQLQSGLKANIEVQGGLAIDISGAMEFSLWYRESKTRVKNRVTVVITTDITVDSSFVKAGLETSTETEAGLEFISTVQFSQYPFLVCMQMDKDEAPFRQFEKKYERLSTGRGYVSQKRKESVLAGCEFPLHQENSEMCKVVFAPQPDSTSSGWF
# [2] = target: T2, mouse microsomal triglyceride transfer protein (mMTP) (Mus musculus, UniProt O08601); assay: NBD-lipid TAG and PL transfer assay in liver homogenate with Mttp knockout control, […] lomitapide; assay type: cell-based
# T2 construct: gene Mttp; endogenous, liver homogenate
# T2 sequence (O08601 22-894): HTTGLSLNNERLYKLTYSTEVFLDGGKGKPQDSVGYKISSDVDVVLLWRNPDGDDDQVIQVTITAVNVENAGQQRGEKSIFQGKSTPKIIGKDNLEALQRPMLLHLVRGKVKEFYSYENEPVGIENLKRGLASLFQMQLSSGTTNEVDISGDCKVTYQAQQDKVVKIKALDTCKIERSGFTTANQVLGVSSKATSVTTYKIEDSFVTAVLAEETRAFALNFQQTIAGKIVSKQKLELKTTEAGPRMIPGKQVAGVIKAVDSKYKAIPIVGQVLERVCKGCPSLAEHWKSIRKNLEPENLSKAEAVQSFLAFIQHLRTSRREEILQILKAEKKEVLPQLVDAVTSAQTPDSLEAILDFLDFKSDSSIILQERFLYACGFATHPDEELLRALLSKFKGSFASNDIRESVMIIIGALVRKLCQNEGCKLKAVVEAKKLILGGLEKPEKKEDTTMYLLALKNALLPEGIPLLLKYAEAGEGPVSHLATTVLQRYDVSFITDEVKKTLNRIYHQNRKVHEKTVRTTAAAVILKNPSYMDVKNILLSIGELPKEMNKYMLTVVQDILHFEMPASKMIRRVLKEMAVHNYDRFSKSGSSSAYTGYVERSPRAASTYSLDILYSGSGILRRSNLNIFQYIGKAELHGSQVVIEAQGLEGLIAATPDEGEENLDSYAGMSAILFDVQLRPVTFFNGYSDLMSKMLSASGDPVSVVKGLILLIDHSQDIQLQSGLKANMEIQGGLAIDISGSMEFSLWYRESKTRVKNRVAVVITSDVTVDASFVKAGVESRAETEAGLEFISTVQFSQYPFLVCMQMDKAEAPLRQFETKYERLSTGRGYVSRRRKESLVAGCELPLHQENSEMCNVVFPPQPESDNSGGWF
# T2 sequence (P09103 20-509 partner): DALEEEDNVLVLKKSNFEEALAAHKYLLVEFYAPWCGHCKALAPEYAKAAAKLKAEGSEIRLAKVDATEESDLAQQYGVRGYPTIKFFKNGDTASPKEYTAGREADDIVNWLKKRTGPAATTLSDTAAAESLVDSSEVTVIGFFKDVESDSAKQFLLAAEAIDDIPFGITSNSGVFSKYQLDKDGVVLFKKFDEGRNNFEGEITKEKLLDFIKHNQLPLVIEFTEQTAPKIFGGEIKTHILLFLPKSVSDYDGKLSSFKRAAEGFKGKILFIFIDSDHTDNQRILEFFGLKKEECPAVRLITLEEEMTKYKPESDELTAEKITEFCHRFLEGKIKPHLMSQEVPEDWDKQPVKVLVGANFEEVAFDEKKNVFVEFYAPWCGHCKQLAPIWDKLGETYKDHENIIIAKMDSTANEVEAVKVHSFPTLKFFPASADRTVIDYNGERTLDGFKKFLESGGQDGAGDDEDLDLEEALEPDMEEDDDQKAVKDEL
# Drosophila MTP (dMTP) = target: T3, Drosophila MTP (dMTP) (Drosophila melanogaster, UniProt Q9VIH3); assay: NBD-PE PL transfer assay in Cos-7 lysate, […] lomitapide (partial inhibition); assay type: cell-based
# T3 construct: expressed in Cos-7 cells, lysate
# T3 sequence (Q9VIH3 28-886): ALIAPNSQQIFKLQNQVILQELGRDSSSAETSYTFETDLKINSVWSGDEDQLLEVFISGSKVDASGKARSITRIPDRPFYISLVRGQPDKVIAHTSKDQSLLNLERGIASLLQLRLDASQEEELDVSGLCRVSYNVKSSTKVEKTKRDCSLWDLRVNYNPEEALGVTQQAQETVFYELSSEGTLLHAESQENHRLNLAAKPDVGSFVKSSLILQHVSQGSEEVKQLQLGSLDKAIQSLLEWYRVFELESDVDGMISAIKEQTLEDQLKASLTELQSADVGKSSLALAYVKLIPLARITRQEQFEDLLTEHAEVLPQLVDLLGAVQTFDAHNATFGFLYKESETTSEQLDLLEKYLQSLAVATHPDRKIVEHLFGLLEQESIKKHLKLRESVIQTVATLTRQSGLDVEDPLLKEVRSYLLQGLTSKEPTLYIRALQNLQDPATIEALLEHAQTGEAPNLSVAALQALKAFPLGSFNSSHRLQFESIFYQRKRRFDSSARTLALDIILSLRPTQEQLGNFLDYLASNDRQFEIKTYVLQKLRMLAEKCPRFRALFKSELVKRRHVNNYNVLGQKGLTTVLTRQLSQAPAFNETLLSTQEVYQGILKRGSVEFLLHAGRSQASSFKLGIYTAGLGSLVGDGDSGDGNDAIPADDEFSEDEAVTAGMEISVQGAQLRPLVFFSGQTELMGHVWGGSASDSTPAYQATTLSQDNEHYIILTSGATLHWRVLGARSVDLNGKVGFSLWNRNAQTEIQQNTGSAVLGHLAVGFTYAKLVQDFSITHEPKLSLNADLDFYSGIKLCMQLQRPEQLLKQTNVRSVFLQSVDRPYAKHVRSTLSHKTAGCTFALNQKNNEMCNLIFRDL
# [3] = target: T4, human microsomal triglyceride transfer protein (hMTP) N649S mutant (Homo sapiens, UniProt P55157, N649S); assay: NBD-lipid TAG and PL transfer assay in Cos-7 lysate, […] lomitapide; assay type: cell-based
# T4 construct: gene MTTP; expressed in Cos-7 cells, lysate
# T4 sequence (P55157 19-894 N649S): T1 sequence (P55157 19-894) with N631S
structure (smiles),measurement,setting,value
O=C(NC1CCN(CCCCC2(C(=O)NCC(F)(F)F)c3ccccc3-c3ccccc32)CC1)c1ccccc1-c1ccc(C(F)(F)F)cc1 [lomitapide],IC50,[1],10 nM
same,NBD-lipid TAG and PL transfer assay in liver homogenate with Mttp knockout contr,[2],"substantial TAG transfer activity in Mttp^fl/fl liver tissue, and this activity was inhibited by lomitapide"
same,"NBD-PE PL transfer assay in Cos-7 lysate, 1 μM lomitapide (partial inhibition)",Drosophila MTP (dMTP),This activity was partially inhibited by lomitapide.
same,"NBD-lipid TAG and PL transfer assay in Cos-7 lysate, 1 μM lomitapide",[3],"resulted in significantly lower TAG transfer activity, which was completely inhibited by lomitapide"
